Experimental data published in patent US20260224658A1, “PRODUCTS AND METHODS FOR THE DIAGNOSIS AND TREATMENT OF P[…]” (priority 2023, published 2026).
Where a SMILES comes first, the peptide text is derived from it. [ ]: non-standard residue; d: D form.

Columns and labels:
MPAO1-ΔmutS [1] = assay: In vitro adaptive evolution (serial passaging) with MIC determination; type: cell-based, Pseudomonas aeruginosa; details: for cross-resistance to antibiotics induced by treatment / cross-resistance to peptides induced by treatment: MPAO1-ΔmutS evolved in the named drug; for resistance acquisition on repeated exposure to the drug: MPAO1-ΔmutS, monotherapy
Experimental: (§1) MICs were determined via microbroth dilution assay in 96-well culture plates with 2-fold serial dilutions of tested antibiotic in Mueller-Hinton (cation-adjusted) broth, inoculated with 50 μL of 2.75×10^5 CFU/mL of each bacterial strain and incubated at 37° C., 200 rpm for 24 hours. MIC experiments were performed using biological triplicates.
(§2) Serial passaging of bacterial strains was performed in 96-well culture plates with 2-fold serial dilutions of antibiotic in MH broth, inoculated with 50 μL 2.75×10^5 CFU/mL of each strain and incubated at 37° C., 200 rpm for 24 hours. […] The bacteria were then serially passaged in the same antibiotic and MIC determined for all antibiotics (aztreonam, ciprofloxacin, D-CONGA, D-CONGA-Q7, polymyxin B). See Antimicrobial susceptibility testing section. The bacteria were serially passaged a total of 10 times.
(§3) All resistance acquisition data was analyzed in units of fold-change to normalize for differences in starting MIC across strains. Fold-change in MIC data for all strains and treatment groups was natural log-transformed and simple linear regression was performed considering each replicate fold-change value as an individual point. Slope, standard error of slope, and total number of values of each treatment group of interest were analyzed via unpaired t-test (ΔmutS vs WT) or ordinary one-way ANOVA (cross-resistance acquisition of ΔmutS+AB vs −AB vs WT), and α-values were corrected for multiple comparisons using the Bonferroni method. Differences in estimated mutation rate across treatment groups were determined via ordinary one-way ANOVA (Brown-Forsythe test). For all statistical tests, p<0.05 was considered significant. All figures were created and statistical tests were done using GraphPad Prism 9.3.1.

MPAO1 [2] = assay: as above; type: cell-based, Pseudomonas aeruginosa
Experimental: as §1, §2, §3

[3] = tested on: drug-resistant clinical isolates of Staphylococcus aureus, Klebsiella pneumoniae, Acinetobacter baumannii, and P. aeruginosa; details: in vitro and in vivo, reference 23; cited from earlier work
[4] = tested on: wild type P. aeruginosa (PAO1); details: reference 23; cited from earlier work
MPAO1 [5] = assay: microbe, parasite or virus in culture; type: cell-based, Pseudomonas aeruginosa; details: strain MPAO1
Experimental: (§4) MIC experiments were performed using biological triplicates.

PAO1 = assay: microbe, parasite or virus in culture; type: cell-based, Pseudomonas aeruginosa; details: strain PAO1
Experimental: as §4

MPAO1-ΔmutL [6] = assay: MIC, microbroth dilution assay; type: cell-based, Pseudomonas aeruginosa; details: strain ΔmutL
Experimental: as §4

MPAO1-ΔmutS [7] = assay: MIC, microbroth dilution assay; type: cell-based, Pseudomonas aeruginosa; details: strain ΔmutS
Experimental: as §4

MPAO1-ΔmutL [8] = assay: In vitro adaptive evolution (serial passaging) with MIC determination; type: cell-based, Pseudomonas aeruginosa; details: MPAO1-ΔmutL, monotherapy
Experimental: as §1, §2, §3

[9] = tested on: predicted MMR-deficient clinical isolates; assay: In vitro adaptive evolution of clinical isolates from pwCF; type: cell-based, Pseudomonas aeruginosa; details: isolates CFP6_Pa2, CFP8_Pa1 and CFP9_Pa1
Experimental: as §4

[10] = MPAO1-ΔmutS evolved in AZ + COL
[11] = MPAO1-ΔmutS passaged with No Antibiotic (Table 4)
[12] = MPAO1-ΔmutS passaged with No Antibiotic (Table 8)
[13] = MPAO1 passaged with No Antibiotic (Table 4)
[14] = MPAO1 passaged with No Antibiotic (Table 8)

Compound: CC(C)C[C@@H](NC(=O)[C@@H](CCCNC(=N)N)NC(=O)[C@@H](CCCNC(=N)N)NC(=O)[C@@H](C)NC(=O)[C@@H](Cc1c[nH]c2ccccc12)NC(=O)[C@@H](CCCNC(=N)N)NC(=O)[C@H](N)CCCNC(=N)N)C(=O)N[C@H](C)C(=O)N[C@H](Cc1ccccc1)C(=O)N[C@H](C)C(=O)N[C@H](Cc1ccccc1)C(=O)N[C@H](CCCNC(=N)N)C(=O)N[C@H](CCCNC(=N)N)C(N)=O [D-CONGA] (H-[dR][dR][dW][dA][dR][dR][dL][dA][dF][dA][dF][dR][dR]-NH2; N-terminus and C-terminus assumed)
- fold-change relative to starting MIC before treatment (MPAO1-ΔmutS [1]; MPAO1-ΔmutS evolved in AZ): 0.33
- fold-change relative to starting MIC before treatment (MPAO1-ΔmutS [1]; [10]): 1.3
- fold-change relative to starting MIC before treatment (MPAO1-ΔmutS [1]; MPAO1-ΔmutS evolved in AZ + D-CONGA): 0.43
- fold-change relative to starting MIC before treatment (MPAO1-ΔmutS [1]; MPAO1-ΔmutS evolved in AZ + D-CONGA-Q7): 0.67
- fold-change relative to starting MIC before treatment (MPAO1-ΔmutS [1]; MPAO1-ΔmutS evolved in COL): 3
- fold-change relative to starting MIC before treatment (MPAO1-ΔmutS [1]; MPAO1-ΔmutS evolved in Chl): 1
- fold-change relative to starting MIC before treatment (MPAO1-ΔmutS [1]; MPAO1-ΔmutS evolved in D-CONGA): 2
- fold-change relative to starting MIC before treatment (MPAO1-ΔmutS [1]; MPAO1-ΔmutS evolved in D-CONGA-Q7): 3.33
- cross-resistance to antibiotics induced by treatment (MPAO1-ΔmutS [1]): failed to induce marked cross-resistance to antibiotics
- cross-resistance to peptides induced by treatment (MPAO1-ΔmutS [1]): induced cross-resistance to other peptides
- fold-change relative to starting MIC before treatment (MPAO1-ΔmutS [1]; [11]): 1
- fold-change relative to starting MIC before treatment (MPAO1-ΔmutS [1]; [12]): 1
- resistance acquisition on repeated exposure to the drug (MPAO1-ΔmutS [1]): developed resistance
- fold-change relative to starting MIC before treatment (MPAO1 [2]; MPAO1 evolved in AZ): 1.2
- fold-change relative to starting MIC before treatment (MPAO1 [2]; MPAO1 evolved in AZ + COL): 1
- fold-change relative to starting MIC before treatment (MPAO1 [2]; MPAO1 evolved in AZ + D-CONGA): 1.2
- fold-change relative to starting MIC before treatment (MPAO1 [2]; MPAO1 evolved in AZ + D-CONGA-Q7): 1.2
- fold-change relative to starting MIC before treatment (MPAO1 [2]; MPAO1 evolved in COL): 1
- fold-change relative to starting MIC before treatment (MPAO1 [2]; MPAO1 evolved in D-CONGA): 1
- fold-change relative to starting MIC before treatment (MPAO1 [2]; MPAO1 evolved in D-CONGA-Q7): 1.4
- fold-change relative to starting MIC before treatment (MPAO1 [2]; [13]): 2
- fold-change relative to starting MIC before treatment (MPAO1 [2]; [14]): 1
- efficacy against drug-resistant clinical isolates [3]: efficacious in vitro and in vivo
- induction of resistance [4]: has not been observed

Compound: Colistin
- MIC, average of triplicates (MPAO1 [5]): 2 µg/mL
- MIC, average of triplicates (PAO1): 2 µg/mL
- MIC, average of triplicates (MPAO1-ΔmutL [6]): 2 µg/mL
- MIC, average of triplicates (MPAO1-ΔmutS [7]): 2 µg/mL
- resistance acquisition on repeated exposure to the drug (MPAO1-ΔmutL [8]): rapid resistance acquisition
- Average MIC at end point (MPAO1-ΔmutS [1]; [10]): 3 µg/mL
- fold-change relative to starting MIC before treatment (MPAO1-ΔmutS [1]; [10]): 1.67
- Average MIC at end point (MPAO1-ΔmutS [1]; MPAO1-ΔmutS evolved in COL): 53 µg/mL
- fold-change relative to starting MIC before treatment (MPAO1-ΔmutS [1]; MPAO1-ΔmutS evolved in COL): 20
- cross-resistance to antibiotics induced by treatment (MPAO1-ΔmutS [1]): failed to induce marked cross-resistance to antibiotics
- cross-resistance to peptides induced by treatment (MPAO1-ΔmutS [1]): induced cross-resistance to other peptides
- Average MIC at end point (MPAO1-ΔmutS [1]; [11]): 2 µg/mL
- fold-change relative to starting MIC before treatment (MPAO1-ΔmutS [1]; [11]): 1
- Average MIC at end point (MPAO1-ΔmutS [1]; [12]): 2 µg/mL
- fold-change relative to starting MIC before treatment (MPAO1-ΔmutS [1]; [12]): 1
- resistance acquisition on repeated exposure to the drug (MPAO1-ΔmutS [1]): Rapid acquisition of resistance
- resistance acquisition on repeated exposure to the drug (MPAO1 [2]; MPAO1, monotherapy, more slowly than MPAO1-ΔmutS): eventually displayed an elevated minimum inhibitory concentration (MIC)
- Average MIC at end point (MPAO1 [2]; MPAO1 evolved in AZ + COL): 5 µg/mL
- fold-change relative to starting MIC before treatment (MPAO1 [2]; MPAO1 evolved in AZ + COL): 2.67
- Average MIC at end point (MPAO1 [2]; MPAO1 evolved in COL): 4 µg/mL
- fold-change relative to starting MIC before treatment (MPAO1 [2]; MPAO1 evolved in COL): 2
- Average MIC at end point (MPAO1 [2]; [13]): 2 µg/mL
- fold-change relative to starting MIC before treatment (MPAO1 [2]; [13]): 1
- Average MIC at end point (MPAO1 [2]; [14]): 2 µg/mL
- fold-change relative to starting MIC before treatment (MPAO1 [2]; [14]): 1
- resistance acquisition under monotherapy [9]: rapidly acquired resistance
